Assay results from patent US20230135100A1, “PROCESS OF PREPARING A PEPTIDE EPOXYKETONE IMMUNOPROTEASOME INHIBITOR, AND PRECURSORS THEREOF” (KEZAR LIFE SCIENCES, priority 2016, published 2023).
“And” between values parts separate entries of the source, which are not always exact repeats. Equal entries are not always repeated. Structures can show the parent of a compound that is named as a salt. Where two headings read alike, the source gives them in different places.

Conditions: 25° C., relative humidity 40%

| SMILES | % Decomposition (1 day) | % Purity at Indicated Time (days) (1 day) | % Purity at Indicated Time (days) (90 days) |
| --- | --- | --- | --- |
| C[C@]1(C(=O)[C@@H](N)CC2=CCCC2)CO1 [Trifluoroacetate, (S)-3-(cyclopent-1-en-1-yl)-1-((R)-2-methyloxiran-2-yl)-1-oxopropan-2-aminium salt] | 5.7% and 8.8% | 79.6 (1) % and 86.0 (1) % |  |
| C[C@]1(C(=O)[C@@H](N)CC2=CCCC2)CO1 [Tosylate, (S)-3-(cyclopent-1-en-1-yl)-1-((R)-2-methyloxiran-2-yl)-1-oxopropan-2-aminium salt] |  |  | 96.0 (90) % and 85.0 (90) % |
